In publication PMC7887271, “Fast acting allosteric phosphofructokinase inhibitors block trypanosome glycolysis and cure acute African trypanosomiasis in mice” (Nature Communications, 2021):
Read-outs that look alike come from different tables or passages of the source.

Key:
[1] = system: bloodstream form of T. brucei strain Lister 427; experiment: T. b. brucei 427 growth inhibition assay (LILiT, Alamar Blue); assay type: cell-based; settings: Trypanosoma brucei
Method in brief: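 LILiT format: ~2500 bloodstream-form parasites per well in HMI-9 with 10% FBS, 3-fold dilutions 45–0.020 µM (DMSO ≤0.45%), 72 h at 37 °C, 5% CO2. Alamar Blue then added for 4 h; fluorescence read at ex 530/em 590 nm.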

T. b. brucei Lister 427 = experiment: Mouse model of stage 1 HAT; assay type: in vivo, T. b. brucei in female CD-1 mice; settings: three oral 50 mg kg^−1 doses 2 h apart daily over 2 days, n = 5
Method: T. b. brucei Lister 427 infection is cured by 1-day dosing. […] These parasites have a doubling time of ~6 h and infection with 1 × 10^5 parasites usually requires euthanasia of mice within 4–5 days of infection in the absence of drug treatment. Drug efficacy is determined by taking regular blood samples from infected mice and checking microscopically for parasitaemia. In this model of acute infection a single surviving parasite should proliferate to reach detectable levels in ~5 days and a 30-day period of no parasite detection is considered as cure.
For the mouse model of stage 1 HAT T. b. brucei Lister 427 parasites (1 × 10^5) were injected into a single donor female CD-1 mouse (University of Edinburgh; 6–8 weeks old) intraperitoneally in D-PBS containing 10 mM glucose. Parasites for subsequent stage 1 HAT infection were obtained from whole blood via cardiac puncture, under gaseous isoflurane anaesthesia. Parasites (1 × 10^3) harvested from the donor mouse were then injected into the peritoneum of female CD-1 mice (University of Edinburgh; 6–8 weeks old) in D-PBS containing 10 mM glucose. One day after infection, animals were either left untreated (n = 3) or dosed orally by gavage (n = 5) with CTCB compound in Cremophor EL: EtOH: D-PBS (30:10:60 v/v; Supplementary Methods 6.3).
T. b. brucei Lister 427 parasites (1 x 10^5) were injected into a single donor female CD-1 mouse (University of Edinburgh; 6-8 weeks old) intraperitoneally in D-PBS containing 10 mM glucose. Parasites for subsequent Stage 1 HAT infection were obtained from whole blood via cardiac puncture, under gaseous isoflurane anaesthesia as described above. Parasites (1 x 10^3) harvested from the donor mouse were then injected into the peritoneum of female CD-1 mice (University of Edinburgh; 6-8 weeks old) in D-PBS containing 10mM glucose. One day after infection, animals were either left untreated (n=3) or dosed orally by gavage (n=5) with CTCB compound in Cremophor EL: EtOH : D-PBS (30:10:60 v/v). The veterinary trypanocidal drug pentamidine isethionate (2.5 mg/kg for 4 consecutive days after infection) was administered intraperitoneally as control (n=3) for parasite elimination. Mice were monitored daily for parasitaemia day 1 post-infection onwards. Trypanosomes were quantified in blood samples from the tail vein by microscopy as previously described (12). Animals were sacrificed on the day that parasites were first detected in blood samples. (Supplementary Figure 11)

[2] = Pharmacokinetic studies in mice (IV and PO); assay type: in vivo, female CD-1 mice; settings: female, CD-1, plasma, mouse; for AUC(0-inf): read-out: AUC (infinity); for clearance: read-out: CL/kg (converted); for half-life: read-out: Elimination t1/2 (converted); for Vd: read-out: Vd (area); for bioavailability: PO 10 mg kg^−1 vs IV 1 mg kg^−1, read-out: Bioavailability (F%)
Method: PK parameters for the lead compounds were determined using three mice per data point (Supplementary Methods 6.1).
Blood samples were collected from terminal cardiac puncture at 0.08 (IV only), 0.25, 0.5, 1 (PO only), 2, 4, 8 and 24 hour time points. The whole blood was centrifuged to obtain plasma. Brains were also collected following cardiac perfusion from both sets of animals at 2 hours. Analysis of the biological samples was carried out by the company Selcia. Plasma proteins were precipitated by addition of PBS (1 volume) followed by 3 volumes of acetonitrile containing internal standard (verapamil). Following filtration through a protein precipitation plate the eluent was dried under nitrogen and re-suspended in mobile phase prior to analysis. Individual brains were homogenised in PBS and diluted to 10% w/v and divided into aliquots consisting of brain homogenate (1 volume, 0.3 ml) and 3 volumes (0.9 ml) of acetonitrile containing internal standard. Samples were centrifuged and supernatants removed and taken through a protein precipitation plate alongside an appropriate standard. Eluents were dried under nitrogen and re-suspended in mobile phase prior to analysis. Eluents were analysed by LC-MS/MS using a Phenomenex Gemini NX column (C18,30 x 2.1 mm, 3 micron). Analysis of the data was carried out using PK solutions software.

[3] = 72 h, Alamar Blue, read-out: EC50 (µM) in vitro parasite killing of bloodstream form T. brucei Lister 427 (Tbb EC50)
[4] = Glycerol 0.75 mM, read-out: EC50

| SMILES | EC50 [1, 3] [µM] | EC50 ([1]; Glycerol 0 mM, read-out: EC50) [µM] | EC50 [1, 4] [µM] | EC50 ([1]; Glycerol […], read-out: EC50) [µM] | outcome of treatment (T. b. brucei Lister 427) | AUC(0-inf) ([2]; IV 1 mg kg^−1) [ng·h/mL] | clearance ([2]; IV 1 mg kg^−1) [mL/min/kg] | half-life ([2]; IV 1 mg kg^−1) [h] | Vd ([2]; IV 1 mg kg^−1) [L/kg] | Cmax ([2]; PO 10 mg kg^−1) [ng/mL] | Tmax ([2]; PO 10 mg kg^−1) [h] | AUC(0-inf) ([2]; PO 10 mg kg^−1) [ng·h/mL] | bioavailability [2] [%] | EC50 ([1]; Glycerol 5.0 mM, read-out: EC50) [µM] |
| --- | --- | --- | --- | --- | --- | --- | --- | --- | --- | --- | --- | --- | --- | --- |
| CN(C)CCn1ccc2c(ccn2Cc2ccc(Cl)c(Br)c2)c1=O [CTCB-470, 1-[(3-Bromo-4-chlorophenyl)methyl]-5-[2-(dimethylamino)ethyl] pyrrolo[3,2-c]pyridin-4-one] | 0.31 ± 0.03 | 0.23 | 0.26 | 0.26 | either complete clearance or a significant increase in survival | 657 | 25 | 3.1 | 6.9 | 393 | 0.5 | 1560 | 24 | – |
| CN(C)CCn1ccc2c(ccn2Cc2ccc(F)c(Br)c2)c1=O [CTCB-508, 1-[(3-Bromo-4-fluorophenyl)methyl]-5-[2-(dimethylamino)ethyl] pyrrolo[3,2-c]pyridin-4-one] | 0.3 ± 0.02 | – | 0.31 | 0.34 | either complete clearance or a significant increase in survival | 349 | 45 | 0.7 | 2.9 | 1330 | 2 | 4170 | 119 | 0.44 |
